How the values were obtained:
Test in all cases: 33PanQinase panel
Assay type in all cases: biochemical
ACK1 = target: T1, ACK1 (Homo sapiens, UniProt Q07912); conditions: ACK1, 1 µM; read-out: Residual Activity (%)
T1 construct: purchased ProQinase
Procedure: (§1) Figure 5 Dendrogram representation of the selectivity profile of 29d at a concentration of 1 μM in a panel of 320 wild-type kinases (ProQinase, Freiburg, Germany). The residual kinase activity was determined compared to DMSO control. Images were generated using TREEspot Software Tool, DISCOVERX CORPORATION 2010. […]
(§2) Table S2. Selectivity profile of compound 29d. The inhibitor has been screened at a concentration of 1 µM over a panel of 320 wild-type protein kinases by ProQinase GmbH (Freiburg, Germany) using an activity-based radiometric 33PanQinase® assay. Results are presented as percentage of residual kinase activity relative to […]
(§3) control. The final DMSO concentration was 1 % in each reaction-mix. Classification of protein kinase families refers to Manning et al. (Manning, G.; Whyte, D. B.; Martinez, R.; Hunter, T.; Sudarsanam, S. The Protein Kinase Complement of the Human Genome. Science 2002, 298, 1912–1934): AGC = containing PKA, PKG, PKC families; […] = containing Cdk, MAPK, GSK3, CLK families; STE = homologs of yeast sterile 7, sterile 11, sterile 20 kinases; TK = tyrosine kinase; TKL = tyrosine kinase-like.
(§4) Kinase name Kinase family Residual Activity (%)

AKT2 aa107-481 = target: T2, AKT2 aa107-481 (Homo sapiens, UniProt P31751); conditions: AKT2 aa107-481, 1 µM; read-out: Residual Activity (%)
T2 construct: purchased ProQinase
Procedure: as §1, §2, §3, §4

ALK (GST-HIS-tag) = target: T3, ALK (GST-HIS-tag) (Homo sapiens, UniProt Q9UM73); conditions: read-out: Residual Activity (%)
T3 construct: purchased ProQinase
Procedure: as §1, §2, §3, §4

B-RAF = target: T4, B-RAF (Homo sapiens, UniProt P15056); conditions: read-out: Residual Activity (%)
T4 construct: purchased ProQinase
Procedure: as §1, §2, §3, §4

CDK1/CycA2 = target: T5, CDK1/CycA2 (Homo sapiens, UniProt P06493); conditions: CDK1/CycA2, 1 µM; read-out: Residual Activity (%)
T5 construct: purchased ProQinase
Procedure: as §1, §2, §3, §4

CK1-delta = target: T6, CK1-delta (Homo sapiens, UniProt P48730); conditions: read-out: Residual Activity (%)
T6 construct: purchased ProQinase
Procedure: as §1, §2, §3, §4

EPHA5 = target: T7, EPHA5 (Homo sapiens, UniProt P54756); conditions: EPHA5, 1 µM; read-out: Residual Activity (%)
T7 construct: purchased ProQinase
Procedure: as §1, §2, §3, §4

EPHB1 = target: T8, EPHB1 (Homo sapiens, UniProt P54762); conditions: EPHB1, 1 µM; read-out: Residual Activity (%)
T8 construct: purchased ProQinase
Procedure: as §1, §2, §3, §4

GRK2 = target: T9, GRK2 (Homo sapiens, UniProt P25098); conditions: GRK2, 1 µM; read-out: Residual Activity (%)
T9 construct: purchased ProQinase
Procedure: as §1, §2, §3, §4

GRK4 = target: T10, GRK4 (Homo sapiens, UniProt P32298); conditions: GRK4, 1 µM; read-out: Residual Activity (%)
T10 construct: purchased ProQinase
Procedure: as §1, §2, §3, §4

IKK-beta = target: T11, IKK-beta (Homo sapiens, UniProt O14920); conditions: read-out: Residual Activity (%)
T11 construct: purchased ProQinase
Procedure: as §1, §2, §3, §4

JNK2 = target: T12, JNK2 (Homo sapiens, UniProt P45984); conditions: JNK2, 1 µM; read-out: Residual Activity (%)
T12 construct: purchased ProQinase
Procedure: as §1, §2, §3, §4

JNK3 = target: T13, JNK3 (Homo sapiens, UniProt P53779); conditions: JNK3, 1 µM; read-out: Residual Activity (%)
T13 construct: purchased ProQinase
Procedure: as §1, §2, §3, §4

LIMK2 = target: T14, LIMK2 (Homo sapiens, UniProt P53671); conditions: LIMK2, 1 µM; read-out: Residual Activity (%)
T14 construct: purchased ProQinase
Procedure: as §1, §2, §3, §4

MET = target: T15, MET (Homo sapiens, UniProt P08581); conditions: read-out: Residual Activity (%)
T15 construct: purchased ProQinase
Procedure: as §1, §2, §3, §4

MST1 = target: T16, MST1 (Homo sapiens, UniProt Q13043); conditions: MST1, 1 µM; read-out: Residual Activity (%)
T16 construct: purchased ProQinase
Procedure: as §1, §2, §3, §4

NEK11 = target: T17, NEK11 (Homo sapiens, UniProt Q8NG66); conditions: NEK11, 1 µM; read-out: Residual Activity (%)
T17 construct: purchased ProQinase
Procedure: as §1, §2, §3, §4

NLK = target: T18, NLK (Homo sapiens, UniProt Q9UBE8); conditions: read-out: Residual Activity (%)
T18 construct: purchased ProQinase
Procedure: as §1, §2, §3, §4

PAK3 = target: T19, PAK3 (Homo sapiens, UniProt O75914); conditions: PAK3, 1 µM; read-out: Residual Activity (%)
T19 construct: purchased ProQinase
Procedure: as §1, §2, §3, §4

PAK6 = target: T20, PAK6 (Homo sapiens, UniProt Q9NQU5); conditions: PAK6, 1 µM; read-out: Residual Activity (%)
T20 construct: purchased ProQinase
Procedure: as §1, §2, §3, §4

PDK1 = target: T21, PDK1 (Homo sapiens, UniProt O15530); conditions: PDK1, 1 µM; read-out: Residual Activity (%)
T21 construct: purchased ProQinase
Procedure: as §1, §2, §3, §4

PIM3 = target: T22, PIM3 (Homo sapiens, UniProt Q86V86); conditions: PIM3, 1 µM; read-out: Residual Activity (%)
T22 construct: purchased ProQinase
Procedure: as §1, §2, §3, §4

RPS6KA1 = target: T23, RPS6KA1 (Homo sapiens, UniProt Q15418); conditions: RPS6KA1, 1 µM; read-out: Residual Activity (%)
T23 construct: purchased ProQinase
Procedure: as §1, §2, §3, §4

RPS6KA2 = target: T24, RPS6KA2 (Homo sapiens, UniProt Q15349); conditions: RPS6KA2, 1 µM; read-out: Residual Activity (%)
T24 construct: purchased ProQinase
Procedure: as §1, §2, §3, §4

TEC = target: T25, TEC (Homo sapiens, UniProt P42680); conditions: read-out: Residual Activity (%)
T25 construct: purchased ProQinase
Procedure: as §1, §2, §3, §4

TGFB-R1 = target: T26, TGFB-R1 (Homo sapiens, UniProt P36897); conditions: TGFB-R1, 1 µM; read-out: Residual Activity (%)
T26 construct: purchased ProQinase
Procedure: as §1, §2, §3, §4

TRK-C = target: T27, TRK-C (Homo sapiens, UniProt Q16288); conditions: read-out: Residual Activity (%)
T27 construct: purchased ProQinase
Procedure: as §1, §2, §3, §4

TSK2 = target: T28, TSK2 (Homo sapiens, UniProt Q96PF2); conditions: TSK2, 1 µM; read-out: Residual Activity (%)
T28 construct: purchased ProQinase
Procedure: as §1, §2, §3, §4

TSSK1 = target: T29, TSSK1 (Homo sapiens, UniProt Q9BXA7); conditions: TSSK1, 1 µM; read-out: Residual Activity (%)
T29 construct: purchased ProQinase
Procedure: as §1, §2, §3, §4

T1 sequence (Q07912 whole entry): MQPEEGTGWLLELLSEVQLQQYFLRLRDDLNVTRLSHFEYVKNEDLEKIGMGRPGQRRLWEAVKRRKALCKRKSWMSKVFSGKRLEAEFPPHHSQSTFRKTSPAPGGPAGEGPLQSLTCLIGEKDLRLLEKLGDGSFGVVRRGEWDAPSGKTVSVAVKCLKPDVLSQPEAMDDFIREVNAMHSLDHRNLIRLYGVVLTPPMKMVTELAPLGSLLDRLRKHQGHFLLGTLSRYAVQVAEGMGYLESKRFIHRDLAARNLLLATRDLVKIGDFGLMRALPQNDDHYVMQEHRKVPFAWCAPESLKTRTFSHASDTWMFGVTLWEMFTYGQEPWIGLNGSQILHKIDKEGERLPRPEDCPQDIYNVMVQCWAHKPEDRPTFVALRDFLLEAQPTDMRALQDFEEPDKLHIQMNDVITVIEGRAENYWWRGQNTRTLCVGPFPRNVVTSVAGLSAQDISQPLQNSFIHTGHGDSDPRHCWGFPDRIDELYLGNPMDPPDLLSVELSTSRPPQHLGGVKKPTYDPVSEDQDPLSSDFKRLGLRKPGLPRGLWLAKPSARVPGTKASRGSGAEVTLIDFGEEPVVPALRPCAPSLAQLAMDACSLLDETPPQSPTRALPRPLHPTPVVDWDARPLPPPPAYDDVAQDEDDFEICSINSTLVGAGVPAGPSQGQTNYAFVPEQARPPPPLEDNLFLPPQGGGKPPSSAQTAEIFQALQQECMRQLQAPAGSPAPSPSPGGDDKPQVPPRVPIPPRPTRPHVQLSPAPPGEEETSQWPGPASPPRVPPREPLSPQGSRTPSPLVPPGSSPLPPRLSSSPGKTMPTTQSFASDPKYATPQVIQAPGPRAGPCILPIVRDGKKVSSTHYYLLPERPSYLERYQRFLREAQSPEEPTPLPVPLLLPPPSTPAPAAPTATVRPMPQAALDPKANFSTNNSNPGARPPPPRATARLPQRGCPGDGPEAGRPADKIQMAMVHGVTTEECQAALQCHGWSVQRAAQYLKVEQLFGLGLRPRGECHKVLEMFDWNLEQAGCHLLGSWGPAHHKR
T23 sequence (Q15418 whole entry): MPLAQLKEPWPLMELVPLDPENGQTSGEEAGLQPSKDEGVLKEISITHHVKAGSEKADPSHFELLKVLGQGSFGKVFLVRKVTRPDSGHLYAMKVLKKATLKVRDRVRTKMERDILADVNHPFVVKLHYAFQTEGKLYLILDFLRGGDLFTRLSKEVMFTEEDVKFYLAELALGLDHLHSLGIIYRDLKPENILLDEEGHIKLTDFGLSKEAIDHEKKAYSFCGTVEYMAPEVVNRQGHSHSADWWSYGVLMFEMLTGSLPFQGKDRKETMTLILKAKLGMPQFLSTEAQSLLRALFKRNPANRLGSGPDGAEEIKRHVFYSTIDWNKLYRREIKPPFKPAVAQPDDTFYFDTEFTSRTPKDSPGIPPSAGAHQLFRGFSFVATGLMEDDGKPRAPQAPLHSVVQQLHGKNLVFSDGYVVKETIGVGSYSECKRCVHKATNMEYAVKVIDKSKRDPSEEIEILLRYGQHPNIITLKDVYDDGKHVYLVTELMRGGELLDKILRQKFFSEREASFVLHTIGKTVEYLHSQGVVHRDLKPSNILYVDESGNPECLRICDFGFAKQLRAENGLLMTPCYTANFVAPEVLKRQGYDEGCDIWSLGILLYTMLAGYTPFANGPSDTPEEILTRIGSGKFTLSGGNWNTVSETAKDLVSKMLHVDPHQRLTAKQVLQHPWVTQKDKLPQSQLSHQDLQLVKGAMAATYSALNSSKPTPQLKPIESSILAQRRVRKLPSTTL
T8 sequence (P54762 18-984): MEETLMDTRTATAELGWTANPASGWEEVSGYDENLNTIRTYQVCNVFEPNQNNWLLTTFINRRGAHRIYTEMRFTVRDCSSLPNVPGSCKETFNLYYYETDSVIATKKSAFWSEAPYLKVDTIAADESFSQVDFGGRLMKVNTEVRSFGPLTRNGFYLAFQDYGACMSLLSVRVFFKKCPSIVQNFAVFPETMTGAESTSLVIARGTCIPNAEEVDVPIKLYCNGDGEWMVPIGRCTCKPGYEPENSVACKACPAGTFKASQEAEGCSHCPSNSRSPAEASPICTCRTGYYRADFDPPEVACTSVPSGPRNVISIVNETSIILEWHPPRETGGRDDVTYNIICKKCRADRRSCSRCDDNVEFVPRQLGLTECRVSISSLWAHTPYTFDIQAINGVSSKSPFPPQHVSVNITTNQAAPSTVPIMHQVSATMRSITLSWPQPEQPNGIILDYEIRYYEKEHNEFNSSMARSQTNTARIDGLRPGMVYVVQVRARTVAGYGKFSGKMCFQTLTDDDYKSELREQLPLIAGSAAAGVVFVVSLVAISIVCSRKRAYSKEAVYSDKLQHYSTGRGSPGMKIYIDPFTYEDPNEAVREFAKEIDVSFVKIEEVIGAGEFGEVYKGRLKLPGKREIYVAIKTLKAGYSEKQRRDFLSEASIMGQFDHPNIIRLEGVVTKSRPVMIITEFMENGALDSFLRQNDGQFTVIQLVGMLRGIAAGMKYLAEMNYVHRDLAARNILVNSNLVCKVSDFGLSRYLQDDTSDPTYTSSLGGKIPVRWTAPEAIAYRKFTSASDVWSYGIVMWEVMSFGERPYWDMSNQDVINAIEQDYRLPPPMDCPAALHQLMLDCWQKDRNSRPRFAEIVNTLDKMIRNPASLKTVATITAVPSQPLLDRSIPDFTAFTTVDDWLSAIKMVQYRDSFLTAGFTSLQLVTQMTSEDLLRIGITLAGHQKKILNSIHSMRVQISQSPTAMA
T26 sequence (P36897 34-503): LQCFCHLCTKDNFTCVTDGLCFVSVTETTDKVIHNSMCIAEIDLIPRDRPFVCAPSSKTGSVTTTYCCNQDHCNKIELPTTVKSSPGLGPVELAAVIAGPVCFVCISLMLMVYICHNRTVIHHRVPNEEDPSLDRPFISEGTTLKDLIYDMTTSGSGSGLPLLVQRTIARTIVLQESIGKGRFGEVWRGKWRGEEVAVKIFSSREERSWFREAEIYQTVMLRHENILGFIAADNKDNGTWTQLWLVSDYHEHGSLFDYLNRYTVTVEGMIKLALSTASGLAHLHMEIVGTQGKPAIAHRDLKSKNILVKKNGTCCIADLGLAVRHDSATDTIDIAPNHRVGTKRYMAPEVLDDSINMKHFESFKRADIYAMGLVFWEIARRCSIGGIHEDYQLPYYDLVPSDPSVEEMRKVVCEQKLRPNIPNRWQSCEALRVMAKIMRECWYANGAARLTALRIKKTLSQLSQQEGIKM
T28 sequence (Q96PF2 whole entry): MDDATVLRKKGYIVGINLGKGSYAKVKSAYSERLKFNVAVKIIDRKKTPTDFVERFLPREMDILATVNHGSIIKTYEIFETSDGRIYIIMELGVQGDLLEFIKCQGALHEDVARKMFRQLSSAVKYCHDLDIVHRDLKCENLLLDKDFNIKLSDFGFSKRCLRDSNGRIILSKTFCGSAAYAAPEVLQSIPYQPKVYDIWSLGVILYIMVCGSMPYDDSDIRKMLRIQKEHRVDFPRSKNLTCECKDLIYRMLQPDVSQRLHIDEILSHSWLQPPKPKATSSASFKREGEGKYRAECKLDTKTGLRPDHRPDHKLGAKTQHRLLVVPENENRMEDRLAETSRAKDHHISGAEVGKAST
T10 sequence (P32298 whole entry): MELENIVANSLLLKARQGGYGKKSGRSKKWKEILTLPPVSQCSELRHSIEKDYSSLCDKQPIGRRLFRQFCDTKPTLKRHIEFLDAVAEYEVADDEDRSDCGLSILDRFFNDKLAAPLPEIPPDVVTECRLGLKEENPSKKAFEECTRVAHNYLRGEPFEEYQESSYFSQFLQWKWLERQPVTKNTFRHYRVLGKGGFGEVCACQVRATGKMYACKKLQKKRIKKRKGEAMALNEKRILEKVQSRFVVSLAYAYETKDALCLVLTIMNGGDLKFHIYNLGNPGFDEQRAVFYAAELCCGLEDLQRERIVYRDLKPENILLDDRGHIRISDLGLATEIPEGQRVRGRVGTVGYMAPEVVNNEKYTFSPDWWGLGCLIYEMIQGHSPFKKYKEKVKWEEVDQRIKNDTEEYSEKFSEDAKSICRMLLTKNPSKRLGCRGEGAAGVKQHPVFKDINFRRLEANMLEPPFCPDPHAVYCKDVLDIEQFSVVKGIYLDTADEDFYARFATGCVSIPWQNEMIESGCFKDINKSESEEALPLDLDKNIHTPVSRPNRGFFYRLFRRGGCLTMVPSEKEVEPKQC
T5 sequence (P06493 whole entry): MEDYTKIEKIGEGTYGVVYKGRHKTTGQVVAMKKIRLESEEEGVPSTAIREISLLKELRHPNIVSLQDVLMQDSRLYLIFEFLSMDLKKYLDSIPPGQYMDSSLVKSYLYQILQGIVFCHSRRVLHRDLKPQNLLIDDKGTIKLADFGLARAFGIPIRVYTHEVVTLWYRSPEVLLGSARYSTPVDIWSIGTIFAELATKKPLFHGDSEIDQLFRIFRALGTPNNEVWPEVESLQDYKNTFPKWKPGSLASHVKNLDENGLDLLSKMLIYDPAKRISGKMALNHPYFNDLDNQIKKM
T5 sequence (P20248 whole entry partner): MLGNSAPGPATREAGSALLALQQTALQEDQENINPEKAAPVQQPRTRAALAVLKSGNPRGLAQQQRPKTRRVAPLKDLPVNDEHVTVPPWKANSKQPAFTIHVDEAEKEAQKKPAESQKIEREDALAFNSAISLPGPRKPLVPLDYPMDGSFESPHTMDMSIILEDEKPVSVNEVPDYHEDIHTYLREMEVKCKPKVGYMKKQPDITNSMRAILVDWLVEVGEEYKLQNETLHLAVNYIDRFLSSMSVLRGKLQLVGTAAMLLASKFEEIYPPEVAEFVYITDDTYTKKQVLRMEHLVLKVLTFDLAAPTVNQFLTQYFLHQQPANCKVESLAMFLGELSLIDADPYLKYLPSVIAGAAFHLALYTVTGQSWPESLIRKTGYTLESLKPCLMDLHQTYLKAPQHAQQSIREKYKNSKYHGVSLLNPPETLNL

**Q.** How did the remaining activity at 1 µM (ACK1) turn out when `COc1ccc(-c2cc(C(=O)Nc3cc(-c4c(-c5ccc(F)cc5)noc4C(C)C)ccn3)n(CC3NCC(O)C3O)c2)cc1` (centres unmarked) [29d] was run?
**A.** 96%

**Q.** And the remaining activity at 1 µM (AKT2 aa107-481)?
**A.** 107%

**Q.** What about the remaining activity at 1 µM (ALK (GST-HIS-tag)) of the same compound?
**A.** 105%

**Q.** And the remaining activity at 1 µM (B-RAF)?
**A.** 95%

**Q.** And the remaining activity at 1 µM (CDK1/CycA2)?
**A.** 102%

**Q.** And the remaining activity at 1 µM (CK1-delta)?
**A.** 1%

**Q.** And the remaining activity at 1 µM (EPHA5)?
**A.** 103%

**Q.** What about the remaining activity at 1 µM (EPHB1) of the same compound?
**A.** 108%

**Q.** And the remaining activity at 1 µM (GRK2)?
**A.** 87%

**Q.** What about the remaining activity at 1 µM (GRK4) of the same compound?
**A.** 111%

**Q.** What about the remaining activity at 1 µM (IKK-beta) of the same compound?
**A.** 92%

**Q.** And the remaining activity at 1 µM (JNK2)?
**A.** 40%

**Q.** And the remaining activity at 1 µM (JNK3)?
**A.** 15%

**Q.** And the remaining activity at 1 µM (LIMK2)?
**A.** 98%

**Q.** And the remaining activity at 1 µM (MET)?
**A.** 89%

**Q.** What about the remaining activity at 1 µM (MST1) of the same compound?
**A.** 101%

**Q.** And the remaining activity at 1 µM (NEK11)?
**A.** 100%

**Q.** And the remaining activity at 1 µM (NLK)?
**A.** 71%

**Q.** What about the remaining activity at 1 µM (PAK3) of the same compound?
**A.** 81%

**Q.** And the remaining activity at 1 µM (PAK6)?
**A.** 83%

**Q.** And the remaining activity at 1 µM (PDK1)?
**A.** 93%

**Q.** And the remaining activity at 1 µM (PIM3)?
**A.** 98%

**Q.** What about the remaining activity at 1 µM (RPS6KA1) of the same compound?
**A.** 84%

**Q.** What about the remaining activity at 1 µM (RPS6KA2) of the same compound?
**A.** 93%

**Q.** And the remaining activity at 1 µM (TEC)?
**A.** 109%

**Q.** And the remaining activity at 1 µM (TGFB-R1)?
**A.** 102%

**Q.** What about the remaining activity at 1 µM (TRK-C) of the same compound?
**A.** 105%

**Q.** And the remaining activity at 1 µM (TSK2)?
**A.** 99%

**Q.** What about the remaining activity at 1 µM (TSSK1) of the same compound?
**A.** 109%
